Patent US20140050778A1, “NUCLEIC ACID BINDING COMPOUNDS, METHODS OF MAKING, AND USE THEREOF” (UNIVERSITY OF ROCHESTER, priority 2010, published 2014)
Entries after “also recorded” stand apart in the source; their conditions may differ.

Key:
[1] = molecular target: (CUG)10 RNA (SEQ ID NO: 3); test: SPR binding to immobilized biotinylated RNA; conditions: SPR, (CUG)10
Experimental: SPR binding measurements were performed on a Biacore-X instrument (Biacore, Inc., Uppsala, Sweden) with two flow channels (FC1 and FC2). 5′-Biotinylated-RNA sequences, with a C6 linker separating the biotin label from the RNA (Integrated DNA Technologies Inc.) were immobilized on streptavidin (Rockland Immunochemicals) functionalized carboxylmethyl dextran coated sensor chips (CM5, G.E. Healthcare) using EDC/NHS (Advanced ChemTech) coupling chemistry. Filtered (0.2μ), degassed and autoclaved HBS-N buffer (0.01M Hepes, pH=7.4, 0.15 M NaCl) was employed as sample and as running buffer for all SPR experiments. A typical protocol for an experiment is as follows: A CM5 sensor chip was allowed to equilibrate to room temperature and then docked into the instrument. Following priming with running buffer, FC1 and FC2 were conditioned by manual injection of 20 μL aqueous NaOH (50 mM) at a flow rate of 30 μL/min. This was repeated 3 times followed by a wash command. Next, the carboxyl groups on the sensor chip surface in both flow cells were activated separately by injecting 60 μL of freshly prepared 1:1 mixture of EDC (0.4 M) and NHS (0.1 M) at a 5 μL/min flow rate followed by a wash. […] After washing, the surface was deactivated with 60 μL injection of ethanolamine (1M, pH=8.5) at 5 μL/min. The flow cells were primed, and the streptavidin surface in FC1 alone was blocked with 30 μL of biotin (20 μM in HBS-N) at 5 μL/min. The RNA (200 nM in running buffer, HBS-N) to be immobilized was unfolded by heating above its predicted melting temperature in a heated block for 2 min and then allowed to refold by cooling gradually to room temperature. The RNA was then immobilized in FC2 alone to response units ranging from 200-1000 RU using a 5 μL/min flow rate. Representative sensorgrams for the immobilization procedure is shown in FIGS. 2A-B. Two 20 μL aliquots of NaCl (0.5 M) were injected at a 30 μL/min flow rate to remove non-specifically bound RNA. The level of RNA immobilized was noted when the baseline was stable, usually after repeated buffer injection followed by a “prime” command. Binding measurements were performed by flowing various concentrations of the compounds to be analyzed over the immobilized RNA and recording the reference-subtracted (FC2−FC1) sensorgrams. For kinetic analysis, at least five sensorgrams corresponding to different concentrations of compound (usually ranging from 0.05-1 μM in HBS-N) were obtained using flow rates of either 60 μL/min or 30 μL/min. The experimental sensorgrams were globally fitted to a 1:1 binding equation (Biaevaluation software) to obtain association rates (ka) and dissociation rates ([…]) as well as equilibrium binding constants (KD). To measure the binding stoichiometry (n), the relations in equations (1-3) below were used: […]
where RUmax is the maximum resonance response unit at saturation, RURNA is the amount RU of RNA immobilized, n is the stoichiometry, MWcompound and MWRNA are molecular weights of compound and RNA respectively, and RUeq represents the resonance response at steady-state (equilibrium). The response units at equilibrium were subjected to Scatchard binding plots of (r/Cfree vs. r).
This technique allows the association and dissociation rates (ka and kd), equilibrium binding constants (KD), and the binding stoichiometry (n) to be measured in a label-free format (Liu and Wilson, “Quantitative Analysis of Small Molecule-nucleic Acid Interactions with a Biosensor Surface and Surface Plasmon Resonance Detection,” Methods Mol. Biol. 613:1-23 (2010), which is hereby incorporated by reference in its entirety).

mouse C2C12 myoblasts = test: Cell permeability by fluorescence microscopy; format: cell-based; conditions: 12 h, 125 μM, intrinsic fluorescence
Experimental: For cell permeability studies, human fibroblasts or mouse myoblasts grown to 80% confluence were exposed to compounds for 12 hours in a 96 well tissue culture plate. After removal of the culture media (DMEM, with 10% FBS, 1% pen-strep (GIBCO)) the cells were washed twice with PBS to remove excess compounds. Cells were then imaged while in buffer under a fluorescence microscope (Olympus IX70) in the 96-well plate using a 460 nm emission filter.

human fibroblasts = test: MTT toxicity assay; format: cell-based; conditions: single substance, concentrations up to 500 μM
Experimental: (§1) For toxicity studies, mouse myoblasts or human fibroblasts were plated in a 96-well tissue culture plate in DMEM (10% fetal bovine serum, 100 units/ml penicillin, […]) and allowed to grow to approximately 80% confluence at 37° C. under CO2. Varying compound concentrations (up to 1 mM) were incubated with cells (48 hours, 37° C.). Media was then removed, and 3-(4,5-dimethylthiazol-2-yl)-2,5-diphenyltetrazolium bromide (“MTT”) in media was added to each well and incubated at 37° C. for 4 h. After removal of the MTT media, isopropanol (100 pp was added, and absorbance was measured at 600 nm on a Modulus microplate reader (Turner Biosystems).
SPR and fluorescence titration experiments, performed using the protocol described in Examples 3 and 4 above, except using as the target a highly conserved RNA sequence responsible for regulating the production of the Gag-Pol polyprotein via a −1 ribosomal frameshift, which occurs along a “slippery sequence” in gag-pol mRNA (SEQ ID NO: 7). This “frameshift stimulatory sequence” (or “HIV-1 FSS”) consists of an upper stemloop and a lower stem, separated by a purine bulge in the most common types of HIV (FIG. 19). For the fluorescent titration experiments, the upper stemloop of SEQ ID NO: 7 was employed. Cell uptake and toxicity studies were carried out using human fibroblasts according to Example 5 above.

pseudotyped HIV = test: Pseudotyped HIV assay (HEK293T producer cells, p24 ELISA, HeLa LTR-luciferase); format: cell-based, HIV-1; conditions: 500 nM, single dose experiments
Experimental: Initial experiments were conducted to ascertain if compound 14 (designated as compound 5-5 Z in PCT Publ. […]. After transfection, cells were incubated with compound for 20 hours. Viruses produced in untreated and treated cells were recovered from the media and viral titers were assessed using a p24 ELISA assay as described previously by Miller et al., “The Dimerization Domain of HIV-1 Viral Infectivity Factor Vif is Required to Block Virion Incorporation of APOBEC3G,” Retrovirology 4:81 (2007), which is hereby incorporated by reference in its entirety. The same number of virus from control and compound-treated cells were used to infect a HeLa cell line expressing luciferase under the control of an LTR promoter (Platt et al., “Effects of CCRS and CD4 Cell Surface Concentrations on Infections by Macrophagetropic Isolates of Human Immunodeficiency Virus Type 1,” J. Virol. 72:2855-2864 (1998), which is hereby incorporated by reference in its entirety). Viral infectivity was quantified in microtiter well format based on the luciferase signals. […]
This experiment was repeated using a dose-response study to assess the efficacy of compound 18. […] Actin concentration (as measured by Western blot) was used to correct viral titers for any subtle variation in cell number, and to confirm that the observed effect is specific to virus production and not to off-target effects. […]

[2] = system: human fibroblasts / mouse myoblasts; test: MTT toxicity assay, comparison drugs (FIGS. 13A-B); format: cell-based
Experimental: as §1

| Compound | apparent KD [1] | cell membrane penetration / localization (mouse C2C12 myoblasts) | toxicity (MTT) (human fibroblasts) | decrease in viral titer relative to null control (pseudotyped HIV) | toxicity (MTT) [2] |
| --- | --- | --- | --- | --- | --- |
| CCc1nc2cc3ccccc3cc2cc1C(=O)O [Compound 2, 2-ethylbenzo[g]quinoline-3-carboxylic acid] | complete lack of binding | only a modest ability to enter cells; also recorded: not internalized by cells | no toxicity | no effect |  |
| COc1cccc2c1C(=O)c1c(O)c3c(c(O)c1C2=O)C[C@@](O)(C(C)=O)C[C@@H]3O[C@H]1C[C@H](N)[C@H](O)[C@H](C)O1 [daunorubicin] |  |  |  |  | significant toxicity at all concentrations tested |
